Molecules are shown by their SMILES.

What is called logP is a log measure of how a compound divides between an organic and an aqueous phase. The low end stands for lower lipophilicity, the high end for higher lipophilicity. In turn, `COc1ccc(C(=O)N(N)c2ccccc2)cc1` gave a logP of 2.94.

In turn, `C/C=N/N(C(=O)c1ccc([N+](=O)[O-])cc1)c1ccccc1` displayed a lipophilicity (logP) of 3.14.

Take `CC=NN(C(=O)c1ccccc1)c1ccccc1`: the logP came to 2.88.

Compound `CN(NC(=S)Nc1ccccc1)C(=O)c1ccc([N+](=O)[O-])cc1` yielded a logP of 2.69.

`CN(N)C(=O)c1ccccc1`: the logP stood at 0.96.

Take `CC=NN(C(=O)c1ccc(OC)cc1)c1ccccc1`: the logP worked out at 3.27.

`Cc1ccc(C(=O)N(N)c2ccccc2)cc1` came in with a logP of 3.1.

On to `CN(N)C(=O)c1ccc([N+](=O)[O-])cc1`, for which the logP stood at 0.99.

Turning to `COc1ccc(C(=O)N(C)N)cc1`, the lipophilicity (logP) turned out to be 1.23.

In the case of `COc1ccc(C(=O)N(C)NC(=S)Nc2ccccc2)cc1`, the log partition coefficient (logP) amounted to 2.8.

`C/C=N/N(C(=O)c1ccc(C)cc1)c1ccccc1` displayed a logP of 3.39.

Regarding `Cc1ccc(C(=O)N(C)N)cc1`, the log partition coefficient (logP) is 1.57.

Compound `NN(C(=O)c1ccccc1)c1ccccc1` gave a log partition coefficient (logP) of 2.44.

For `O=C(c1ccc([N+](=O)[O-])cc1)N(NC(=S)Nc1ccccc1)c1ccccc1`, the log partition coefficient (logP) is 3.91.

`Cc1ccc(C(=O)N(C)NC(=S)Nc2ccccc2)cc1` gave a logP of 2.88.

The compound `Cc1ccc(C(=O)N(NC(=S)Nc2ccccc2)c2ccccc2)cc1` returned a logP of 4.12.

Consider `NN(C(=O)c1ccc([N+](=O)[O-])cc1)c1ccccc1`, for which the logP worked out at 2.62.

The values above are taken from the SangsterLogP compilation.
